Patent US20210108199A1, “Treatment for aggressive cancers by targeting C9ORF72” (The Trustees of Columbia University in the City of New York, priority 2017, published 2021)
Counter-ions that a name gives are not always drawn. Where a SMILES comes first, the peptide text is derived from it. The star is where a group is joined. Cbz = O=C(OCc1ccccc1)*; CH2F = FC*

Experiments:
Type in all cases: cell-based
[1] = test system: U87 cells; assay: Macropinocytosis inhibition with EIPA; details: C9 KD U87 cells, 20 μM EIPA vs DMSO
Method: Cell were treated with control and C9 siRNA. After 6 hours, media were replaced and control and siC9 cells were either treated with DMSO or with 20 μM 5-(N-Ethyl-N-isopropyl) amiloride (Sigma™, A3085). After 3 days, cells were then imaged using Nikon Eclipse™ Ts2-FL Inverted Fluorescence Microscope and vacuoles from images were quantitated using ImageJ™.
In another study to further confirm the macropinocytotic origin of the vacuoles, 5-(N-ethyl-N-isopropyl) amiloride (EIPA), a macropinocytosis inhibitor was used.
FIG. 9 presents phase contrast images (40×) of U87 cells treated with control or C9 siRNA (SEQ ID NO;631) and incubated in DMSO (siCtrl+DMSO and siC9+DMSO, respectively) or in 20 μM Amiloride (siCtrl+EIPA 20 μM and siC9+EIPA 20 μM, respectively). The scale bar represents 10 μm. WB on the right represents C9 KD efficiency in EIPA treated U87 cells. […] Statistical significance was assessed by an unpaired t-test: NS P>0.05, *P≤0.05, **P≤0.01, ***P≤0.001 ****P≤0.0001.

[2] = test system: U87 cells; assay: RAC1 inhibition with NSC23766, vacuoles per cell; details: C9 KD U87 cells, 100 μM NSC23766 vs DMSO, 3 days
Method: Macropinocytosis is known to depends on RAC1 activation which induces membrane ruffling (through actin rearrangement) that mature into macropinosomes. If the accumulated vacuoles are of macropinocytotic origin, then inhibition of RAC1 should rescue their accumulation. To test this, cells were treated with control or C9 siRNA in combination with NSC23766 (NSC), a RAC1 inhibitor.
FIG. 11A, FIG. 11B, FIG. 11C and FIG. 11D are a set of phase contrast images (20×) of U87 cells treated with control or C9 siRNA (SEQ ID NO:631) and incubated in DMSO (siCtrl+DMSO and siC9+DMSO, respectively) or in 100 μM RAC1 inhibitor NSC23766 (siCtrl+NSC and siC9+NSC, respectively). The scale bar represents 10 μm. […] FIG. 12 is a graph representing quantitation of the data for U87 cells treated with control (n=76) siRNA and DMSO (blue dots), U87 cells treated with C9 siRNA (n=41) with DMSO (red squares), U87 cells treated with control (n=74) siRNA and 100 μm of NSC (green dots), and U87 cells treated with C9 siRNA (n=73) with 100 μm of NSC (purple dots). Statistical significance was assessed by an unpaired t-test: NS P>0.05, *P≤0.05, **P≤0.01, ***P≤0.001 ****P≤0.0001.

[3] = test system: U87 cells; assay: Viability rescue with caspase inhibitor Z-VAD-FMK
Method: For viability assays (performed in 6-well plates), cells were harvested using trypsin (0.5 ml per well) and the media were saved from each well. The saved media was re-suspended with the trypsinised cells and 2-3 aliquots (50 μL each) of this suspension were taken into a 96-well plates. CellTiter-Glo™ (CTG) Luminescent Viability assay was used to measure the viability of these aliquots. CTG-media mixture (150 μL) were added to each well. The rest of the culture was used to extract protein. The viability of cells was measured using the 1:1 dilution of the CellTiter-Glo™ Luminescent reagent (Promega™, cat #G7573) with media, which was read on Victor™ 5 plate reader after 10 minutes of shaking at room temperature. The intensity of luminescence was normalized to that of the DMSO (Sigma™, D5879) control.
To confirm that cells undergo non-apoptotic death, apoptosis was blocked with a broad caspase inhibitor Z-VAD-FMK upon C9 KD. […] Additionally, the apoptosis inducer, staurosporine (STS), was used to asses Z-VAD-FMK efficacy. […] A beta galactosidase staining technique was used to asses senescence upon C9 KD. […] See FIG. 20, for which U87 cells were treated with control (siCtrl) and C9 (siC9; SEQ ID NO:631) siRNA and then subjected to β-Galactosidase Staining.

[4] = test system: p53; assay: p53 western blot in p53 null U87 cells treated with doxorubicin; details: p53 null U87 cells (KO #4)
Method: To generate p53 knockout clones, U87 cells (7×10^5) were transfected with 2 μg p53 CRISPR/Cas9 KO plasmid (Santa Cruz Biotech™, sc-416469) using Lipofectamine 2000 (ThermoFisher™). Two days later, cells were treated with Nutlin-3 (10 μM) for 12 days to inhibit proliferation of cells with wild type p53, thereby enriching for p53 knockout cells. Single-cell clones were selected via limiting dilution, and p53 knockout clones were confirmed by western blotting using p53 antibody (FL-393).
To further validate the dependency of vacuolization on p53, two p53 null cell lines were generated using CRISPR. First, the cells lack of p53 was validated by treating them doxorubicin, […]. […] See FIG. 31, which is a WB showing p53 levels in wtp53 U87 (WT p53) cells and in p53 null U87 cells treated with DMSO (KO #4+DMSO) or DOX (KO #4+DOX).

[5] = test system: U87 cells; assay: TUNEL assay for DNA breaks; details: vs control
Method: Cells were treated with control and C9 siRNA for three days. On day three, cells were collected for TUNEL assay using the FlowTACS kit (TREVIGEN™, 4817-60-K) according to manufacturer's instructions to detect DNA fragmentation. For a positive control, DNA damage was induced using doxorubicin. Data were collected on a FACSCalibur™ flow cytometer (Becton Dickinson™) and data analysis performed on FlowJo™.
ROS can cause oxidative DNA damage. Since elevated ROS levels were observed under C9 KD conditions, it may cause increase in DNA damage. To test this hypothesis, a TUNEL assay was used to measure DNA breaks. […] In addition to C9KD, U87 cells were treated with a known chemotherapeutic DNA damage-inducing drug to serve as a positive control for DNA damage (see FIG. 23). FIG. 23 presents data for the TUNEL assay of U87 cells treated as described for FIG. 21 and for positive DNA-damage control with 0.5 μM doxorubicin (DOX). FIG. 23A presents data for the percentage of cells with DNA fragmentation (shown by DNA damage) comparing control (siCtrl) C9 KD (siC9; SEQ ID NO:631) and DOX-treated cells as measured by FACS analysis. […] FIG. 24 is a set of graphs showing data for cells treated as described for FIG. 23, with the exception of using a different C9 siRNA, indicated as siC9 #2 (SEQ ID NO:633).

[6] = test system: p53; assay: Western blot of phospho-p53, p53 and p21; details: U87 cells
Method: For Western blot analysis, cells were lysed with lysis buffer (20 mM sodium phosphate (pH 7.0), 250 mM NaCl, 30 mM sodium pyrophosphate, 0.1% Nonidet™ P-40, 5 mM EDTA, 10 mM NaF, 0.1 mM Na3VO4, and 1 mM PMSF) supplemented with complete protease inhibitors (Roche™) and homogenized by passage through a 28 gauge needle. Protein concentration was measured with a Bio-Rad™ protein assay dye reagent and results were read using a spectrophotometer (BiophotometerPlus™ by Eppendorf™). Protein extracts were resolved by SDS PAGE on gradient (Thermo Fisher™) or 12% gels. Proteins were then electrotransferred at 350 mA for 80 minutes onto a PVDF membrane (Immobilon-P PVDF). Membranes were blocked with PBST with 5% milk and 1% BSA for 30 minutes. Quantitation of blots was performed Image Studio Lite software (LI-COR Biosciences™).
One of the responses to DNA damage is activation of p53 by ATM. Upon DNA damage, ATM activation leads to p53 phosphorylation, which activates p53 as a transcription factor. Since increased DNA damage was observed upon C9 KD, whether p53 is activated in C9 depleted cells was investigated. First, total p53 levels were measured in U87 cells treated with control and two independent siRNAs against C9. […] Then, the levels of phosphorylated (active) p53 (at s15) was measured. Phosphorylation of s15 on p53 was increased in both C9 siRNA samples.

With CCN(c1nc(N)c(C(=O)NC(=N)N)nc1Cl)C(C)C [EIPA, 5-(N-ethyl-N-isopropyl) amiloride] the vacuole formation [1] was “significant inhibition of vacuole formation”.

In the case of CCN(CC)CCCC(C)Nc1nc(C)cc(Nc2ccc3nc(C)cc(N)c3c2)n1 (stereo not drawn) [NSC23766], the vacuoles per cell [2] is reported as “significant drop in vacuoles”.

In the case of COC(=O)C[C@H](NC(=O)[C@H](C)NC(=O)[C@@H](NC(=O)OCc1ccccc1)C(C)C)C(=O)CF [Z-VAD-FMK] (Cbz-Val-Ala-Asp(OMe)-CH2F), the “rescue of cell viability” value ([3]; C9 KD U87 cells) is reported as “did not significantly rescue” and the “rescue of cell viability” value ([3]; staurosporine (STS) treated U87 cells) is reported as “able rescue viability”.

In the case of COc1cccc2c1C(=O)c1c(O)c3c(c(O)c1C2=O)C[C@@](O)(C(=O)CO)C[C@@H]3O[C@H]1C[C@H](N)[C@H](O)[C@H](C)O1 [doxorubicin, Doxorubicin hydrochloride], the p53 accumulation [4] is reported as “did not induce p53 accumulation”.

In the case of “siC9 #2: siRNA targeting C9 mRNA: GCACAUAUGGACUAUCAAUtt (SEQ ID NO:633; sense) and AUUGAUAGUCCAUAUGUGCtg (SEQ ID NO:634; antisense) (sense GCACAUAUGGACUAUCAAUTT; antisense AUUGAUAGUCCAUAUGUGCTG; chemistry not given here)”, the “DNA breaks (TUNEL)” value [5] is reported as “increase in DNA breaks”, the p21 protein levels [6] is reported as “increased p21 protein levels” and the “phosphorylation of s15 on p53” value [6] is reported as “increased”. The “total p53 levels” value [6] was “elevates p53 levels”.
